Experimental data reported in paper PMC5584945, “Evaluation of robenidine analog NCL195 as a novel broad-spectrum antibacterial agent” (PLoS ONE, 2017).
Values after ≈ are worked out from the molar mass of the structure shown.

How the values were obtained:
S. pneumoniae = assay: MIC, broth micro-dilution (CLSI); format: cell-based, Streptococcus pneumoniae; conditions: for MIC / MIC50 / MIC90: Streptococcus pneumoniae
S. aureus = assay: MIC, broth micro-dilution (CLSI); format: cell-based, Staphylococcus aureus; conditions: for MIC: Staphylococcus aureus, ATCC 12600 / MSSA, ATCC12600 [Xen29] (MSSA)

## C/C(=N\NC(=N)N/N=C(\C)c1ccc(C(C)(C)C)cc1)c1ccc(C(C)(C)C)cc1 [NCL219, (E)-N'-((E)-1-(4-(tert-butyl)phenyl)ethylidene)-2-(1-(4-(tert-butyl)phenyl)ethylidene)hydrazine-1-carboximidhydrazide]
S. pneumoniae; 21 isolates
  MIC range: 1 to 8 µg/mL
S. pneumoniae; S1 Table isolates, 5% FBS + 3% washed RBC
  MIC range: 1 to 8 µg/mL
S. pneumoniae; S1 Table isolates, 10% FBS + 3% washed RBC
  MIC range: 1 to 8 µg/mL
S. pneumoniae; A66.1 (serotype 3), 5% FBS
  MIC: 4 µg/mL (≈ 9.86 µM)
S. pneumoniae; A66.1 (serotype 3), 10% FBS
  MIC: 4 µg/mL (≈ 9.86 µM)
S. pneumoniae; ATCC6303, ATCC 6303 (serotype 3), 5% FBS + 3% washed RBC
  MIC: 1 µg/mL
S. pneumoniae; ATCC6303, ATCC 6303 (serotype 3), 10% FBS + 3% washed RBC
  MIC: 1 µg/mL
S. pneumoniae; D39/D39LUX (serotype 2), 5% FBS
  MIC: 4 µg/mL (≈ 9.86 µM)
S. pneumoniae; D39/D39LUX (serotype 2), 10% FBS
  MIC: 4 µg/mL (≈ 9.86 µM)
S. pneumoniae; L82016 (serotype 6B), 5% FBS
  MIC: 2 µg/mL (≈ 4.93 µM)
S. pneumoniae; L82016 (serotype 6B), 10% FBS
  MIC: 2 µg/mL (≈ 4.93 µM)
S. pneumoniae; P9 (serotype 6A), 5% FBS
  MIC: 4 µg/mL (≈ 9.86 µM)
S. pneumoniae; P9 (serotype 6A), 10% FBS
  MIC: 4 µg/mL (≈ 9.86 µM)
S. pneumoniae; P21 (serotype 3), 5% FBS
  MIC: 4 µg/mL (≈ 9.86 µM)
S. pneumoniae; P21 (serotype 3), 10% FBS
  MIC: 4 µg/mL (≈ 9.86 µM)
S. pneumoniae; S1 Table isolates, 5% FBS
  MIC50: 4 µg/mL (≈ 9.86 µM)
  MIC90: 4 µg/mL (≈ 9.86 µM)
S. pneumoniae; S1 Table isolates, 10% FBS
  MIC50: 4 µg/mL (≈ 9.86 µM)
  MIC90: 8 µg/mL (≈ 19.7 µM)
S. pneumoniae; TIGR4 (serotype 4), 5% FBS
  MIC: 2 µg/mL (≈ 4.93 µM)
S. pneumoniae; TIGR4 (serotype 4), 10% FBS
  MIC: 2 µg/mL (≈ 4.93 µM)
S. pneumoniae; WCH16 (serotype 6A), 5% FBS
  MIC: 2 µg/mL (≈ 4.93 µM)
S. pneumoniae; WCH16 (serotype 6A), 10% FBS
  MIC: 2 µg/mL (≈ 4.93 µM)
S. pneumoniae; WCH43 (serotype 4), 5% FBS
  MIC: 2 µg/mL (≈ 4.93 µM)
S. pneumoniae; WCH43 (serotype 4), 10% FBS
  MIC: 2 µg/mL (≈ 4.93 µM)
S. pneumoniae; WCH46 (serotype 4), 5% FBS
  MIC: 4 µg/mL (≈ 9.86 µM)
S. pneumoniae; WCH46 (serotype 4), 10% FBS
  MIC: 4 µg/mL (≈ 9.86 µM)
S. pneumoniae; WCH57 (serotype 8), 5% FBS
  MIC: 4 µg/mL (≈ 9.86 µM)
S. pneumoniae; WCH57 (serotype 8), 10% FBS
  MIC: 4 µg/mL (≈ 9.86 µM)
S. pneumoniae; WCH86 (serotype 4), 5% FBS
  MIC: 4 µg/mL (≈ 9.86 µM)
S. pneumoniae; WCH86 (serotype 4), 10% FBS
  MIC: 4 µg/mL (≈ 9.86 µM)
S. pneumoniae; WCH89 (serotype 7), 5% FBS
  MIC: 8 µg/mL (≈ 19.7 µM)
S. pneumoniae; WCH89 (serotype 7), 10% FBS
  MIC: 4 µg/mL (≈ 9.86 µM)
S. pneumoniae; WCH92 (serotype 4), 5% FBS
  MIC: 4 µg/mL (≈ 9.86 µM)
S. pneumoniae; WCH92 (serotype 4), 10% FBS
  MIC: 4 µg/mL (≈ 9.86 µM)
S. pneumoniae; WCH137 (serotype 6A), 5% FBS
  MIC: 4 µg/mL (≈ 9.86 µM)
S. pneumoniae; WCH137 (serotype 6A), 10% FBS
  MIC: 4 µg/mL (≈ 9.86 µM)
S. pneumoniae; WCH158 (serotype 19F), 5% FBS
  MIC: 8 µg/mL (≈ 19.7 µM)
S. pneumoniae; WCH158 (serotype 19F), 10% FBS
  MIC: 8 µg/mL (≈ 19.7 µM)
S. pneumoniae; WCH184 (serotype 19F), 5% FBS
  MIC: 2 µg/mL (≈ 4.93 µM)
S. pneumoniae; WCH184 (serotype 19F), 10% FBS
  MIC: 2 µg/mL (≈ 4.93 µM)
S. pneumoniae; WCH211 (serotype 11), 5% FBS
  MIC: 4 µg/mL (≈ 9.86 µM)
S. pneumoniae; WCH211 (serotype 11), 10% FBS
  MIC: 4 µg/mL (≈ 9.86 µM)
S. pneumoniae; WU2 (serotype 3), 5% FBS
  MIC: 4 µg/mL (≈ 9.86 µM)
S. pneumoniae; WU2 (serotype 3), 10% FBS
  MIC: 4 µg/mL (≈ 9.86 µM)
S. aureus; 10% FBS versus no FBS
  Fold increase of MIC range in the presence of 10% FBS: remained essentially the same
S. aureus; 10% FBS
  MIC: 4 µg/mL (≈ 9.86 µM)
S. aureus; absence of FBS
  MIC: 32 µg/mL (≈ 78.9 µM)
